Data on 22 molecules can be found in US8519149B2, “Tricyclic compounds as mPGES-1 inhibitors” (Glenmark Pharmaceuticals S.A., priority 2010, dated 2013).

The assay addresses T1, Recombinant human mPGES-1 (Homo sapiens, UniProt O14684).
T1 sequence (O14684 1-152): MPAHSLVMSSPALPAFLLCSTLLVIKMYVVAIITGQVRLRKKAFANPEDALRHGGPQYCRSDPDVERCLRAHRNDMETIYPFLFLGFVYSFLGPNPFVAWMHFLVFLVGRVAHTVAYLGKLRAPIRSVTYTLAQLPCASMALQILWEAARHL
The assay can be described thus: In-vitro mPGES-1 enzyme inhibition assay (PGE2 formation from PGH2, HTRF detection). It counts as biochemical. To be noted: for inhibition at 1 µM: 1 μM test compound, read-out: Percentage inhibition at 1 μM; for inhibition at 1 µM / inhibition at 10 µM: recombinant human mPGES-1 microsomal fraction; for inhibition at 10 µM: 10 μM test compound, read-out: Percentage inhibition at 10 μM; for IC50: class symbols, selected examples. Put shortly:
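IC50 values were derived by nonlinear regression of percent inhibition relative to enzyme reactions run without inhibitor. PGE2 formed from PGH2 with GSH was quantified by antibody-based HTRF after stannous chloride quench. Enzyme source was human mPGES-1 microsomes at 40-60 μg/mL protein; DMSO 0.5% (v/v).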
On the technique in general: In TR-FRET formats the signal depends on donor and acceptor labels being close together.

Each structure is given as a SMILES string.

Regarding `Cn1c(Nc2c(Cl)cncc2Cl)nc2cc(C(=O)Nc3ccc(C4CC4)cc3)c3c(c21)CC(C)(C)O3` [Example-216, N-(4-Cyclopropylphenyl)-2-((3,5-dichloropyridin-4-yl)amino)-1,7,7-trimethyl-7,8-dihydro-1H-benzofuro[4,5-d]imidazole-5-carboxamide], the inhibition at 1 µM is 96.5% and the inhibition at 10 µM came out at 96.4%.

Turning to `CC1(C)Cc2c(c(C(=O)Nc3ccc(N4CCCC4)nc3)cc3nc(Nc4c(Cl)cccc4Cl)[nH]c23)O1` [Example-96, 2-[(2,6-Dichlorophenyl)amino]-7,7-dimethyl-N-[6-(pyrrolidin-1-yl)pyridin-3-yl]-7,8-dihydro-1H-furo[3,2-e]benzimidazole-5-carboxamide], the inhibition at 1 µM was 90.4%, the inhibition at 10 µM came out at 95.1% and the 50% inhibitory concentration (IC50) was less than 50 nM.

On to `Cc1cc2c(o1)c(C(=O)NC1CCCCC1)cc1nc(Nc3ccccc3Cl)[nH]c12` [Example-16, 2-[(2-Chlorophenyl)amino]-N-cyclohexyl-7-methyl-1H-furo[3,2-e]benzimidazole-5-carboxamide], for which the inhibition at 1 µM turned out to be 73.5% and the inhibition at 10 µM was determined as 94.9%.

On to `Cc1cc2c(o1)c(C(=O)NCc1ccc(F)cc1)cc1nc(Nc3c(F)cccc3Cl)[nH]c12` [Example-48, 2-[(2-Chloro-6-fluorophenyl)amino]-N-(4-fluorobenzyl)-7-methyl-1H-furo[3,2-e]benzimidazole-5-carboxamide], for which the inhibition at 1 µM was found to be 70.8% and the inhibition at 10 µM was 96.7%.

With `CC1(C)Cc2c(c(C(=O)Nc3ncc(Cl)cc3F)cc3nc(Nc4c(Cl)cccc4Cl)[nH]c23)O1` [Example-205, N-(5-Chloro-3-fluoropyridin-2-yl)-2-((2,6-dichlorophenyl)amino)-7,7-dimethyl-7,8-dihydro-1H-benzofuro[4,5-d]imidazole-5-carboxamide], the inhibition at 1 µM stood at 99.9%, the inhibition at 10 µM was determined as 100% and the half-inhibitory concentration (IC50) is less than 50 nM.

Regarding `Cc1cccc(Cl)c1Nc1nc2cc(C(=O)Nc3ccc(C(F)(F)F)nc3)c3c(c2[nH]1)CC(C)(C)O3` [Example-160, 2-((2-Chloro-6-methylphenyl)amino)-7,7-dimethyl-N-(6-(trifluoromethyl)pyridin-3-yl)-7,8-dihydro-1H-benzofuro[4,5-d]imidazole-5-carboxamide], the inhibition at 1 µM stood at 99.2%, the inhibition at 10 µM was determined as 100% and the 50% inhibitory concentration (IC50) was in the range of 50 to 100 nM.

With `Cn1c(Nc2c(F)cccc2Cl)nc2cc(C(=O)Nc3cccc(C(F)(F)F)c3)c3c(c21)CC(C)(C)O3` [Example-139, 2-((2-Chloro-6-fluorophenyl)amino)-1,7,7-trimethyl-N-(3-(trifluoromethyl)phenyl)-7,8-dihydro-1H-benzofuro[4,5-d]imidazole-5-carboxamide], the inhibition at 1 µM came out at 95.9%, the inhibition at 10 µM came out at 99.2% and the half-inhibitory concentration (IC50) is less than 50 nM.

On to `Cc1cccc(Cl)c1Nc1nc2cc(C(=O)Nc3cccc(C(F)(F)F)c3F)c3c(c2[nH]1)CC(C)(C)O3` [Example-164, 2-((2-Chloro-6-methylphenyl)amino)-N-(2-fluoro-3-(trifluoromethyl)phenyl)-7,7-dimethyl-7,8-dihydro-1H-benzofuro[4,5-d]imidazole-5-carboxamide], for which the inhibition at 1 µM worked out at 93.5%, the inhibition at 10 µM is 94.5% and the IC50 is less than 50 nM.

On to `CC1(C)Cc2c(c(C(=O)NC3CCCCC3)cc3nc(Nc4c(Cl)cncc4Cl)sc23)O1` [Example-28, N-Cyclohexyl-2-[(3,5-dichloropyridin-4-yl)amino]-7,7-dimethyl-7,8-dihydrofuro[2,3-g][1,3]benzothiazole-5-carboxamide], for which the inhibition at 1 µM was determined as 87.3%, the inhibition at 10 µM was 98.9% and the 50% inhibitory concentration (IC50) was more than 100 nM.

With `CC1(C)Cc2c(c(C(=O)Nc3ccc(F)cc3F)cc3nc(Nc4c(Cl)cncc4Cl)[nH]c23)O1` [Example-197, 2-((3,5-Dichloropyridin-4-yl)amino)-N-(2,4-difluorophenyl)-7,7-dimethyl-7,8-dihydro-1H-benzofuro[4,5-d]imidazole-5-carboxamide], the inhibition at 1 µM worked out at 99.6%, the inhibition at 10 µM worked out at 99.5% and the IC50 was less than 50 nM.

Consider `CC(C)c1ccc(NC(=O)c2cc3nc(Nc4c(Cl)cccc4Cl)[nH]c3c3c2OC(C)(C)C3)cc1` [Example-90, 2-[(2,6-Dichlorophenyl)amino]-7,7-dimethyl-N-[4-(propan-2-yl)phenyl]-7,8-dihydro-1H-furo[3,2-e]benzimidazole-5-carboxamide], for which the inhibition at 1 µM came out at 97.7%, the inhibition at 10 µM amounted to 98.4% and the half-maximal inhibitory concentration (IC50) is less than 50 nM.

On to `Cc1nc2c(o1)c(C(=O)NCC1CCCCC1)cc1nc(Nc3c(Cl)cccc3Cl)[nH]c12` [Example-183, N-(Cyclohexylmethyl)-7-[(2,6-dichlorophenyl)amino]-2-methyl-8H-imidazo[4,5-e][1,3]benzoxazole-4-carboxamide], for which the inhibition at 1 µM is 97.5%, the inhibition at 10 µM came out at 93.1% and the 50% inhibitory concentration (IC50) is less than 50 nM.

With `Cc1cccc(Cl)c1Nc1nc2cc(C(=O)Nc3cc(C(F)(F)F)ccc3F)c3c(c2[nH]1)CC(C)(C)O3` [Example-110, 2-[(2-Chloro-6-methylphenyl)amino]-N-[2-fluoro-5-(trifluoromethyl)phenyl]-7,7-dimethyl-7,8-dihydro-1H-furo[3,2-e]benzimidazole-5-carboxamide], the inhibition at 1 µM is 96.6%, the inhibition at 10 µM was found to be 97.2% and the IC50 is less than 50 nM.

`Cc1cnc(NC(=O)c2cc3nc(Nc4c(Cl)cccc4Cl)[nH]c3c3c2OC(C)(C)C3)s1` [Example-40, 2-[(2,6-Dichlorophenyl)amino]-7,7-dimethyl-N-(5-methyl-1,3-thiazol-2-yl)-7,8-dihydro-1H-furo[3,2-e]benzimidazole-5-carboxamide]: the inhibition at 1 µM was determined as 88.7%, the inhibition at 10 µM was found to be 94.6% and the IC50 was less than 50 nM.

Take `CC1(C)Cc2c(c(C(=O)Nc3ccc(C(F)(F)F)cc3)cc3nc(Nc4ccc(Cl)cc4Cl)[nH]c23)O1` [Example-91, 2-[(2,4-Dichlorophenyl)amino]-7,7-dimethyl-N-[4-(trifluoromethyl)phenyl]-7,8-dihydro-1H-furo[3,2-e]benzimidazole-5-carboxamide]: the inhibition at 1 µM turned out to be 43.9% and the inhibition at 10 µM was determined as 60.2%.

Regarding `CC1(C)Cc2c(c(C(=O)Nc3ccccc3F)cc3nc(Nc4c(F)cccc4Cl)[nH]c23)O1` [Example-51, 2-[(2-Chloro-6-fluorophenyl)amino]-N-(2-fluorophenyl)-7,7-dimethyl-7,8-dihydro-1H-furo[3,2-e]benzimidazole-5-carboxamide], the inhibition at 1 µM is 96.9%, the inhibition at 10 µM turned out to be 99.4% and the IC50 is less than 50 nM.

`CC1(C)Cc2c(c(C(=O)Nc3ccc(C(F)(F)F)cc3F)cc3nc(Nc4c(F)cccc4Cl)[nH]c23)O1` [Example-112, 2-[(2-Chloro-6-fluorophenyl)amino]-N-[2-fluoro-4-(trifluoromethyl)phenyl]-7,7-dimethyl-7,8-dihydro-1H-furo[3,2-e]benzimidazole-5-carboxamide]: the inhibition at 1 µM is 96.8%, the inhibition at 10 µM amounted to 96.2% and the 50% inhibitory concentration (IC50) is less than 50 nM.

Consider `Cc1nc2c(o1)c(C(=O)Nc1ccc(F)c(C(F)(F)F)c1)cc1nc(Nc3c(F)cccc3Cl)[nH]c12` [Example-187, 7-((2-Chloro-6-fluorophenyl)amino)-N-(4-fluoro-3-(trifluoromethyl)phenyl)-2-methyl-8H-imidazo[4′,5′:5,6]benzo[1,2-d]oxazole-4-carboxamide], for which the inhibition at 1 µM was found to be 95.8%, the inhibition at 10 µM amounted to 83% and the IC50 is less than 50 nM.

For `CC1(C)Cc2c(c(C(=O)Nc3ccc(F)cc3)cc3nc(Nc4c(Cl)cncc4Cl)[nH]c23)O1` [Example-24, 2-[(3,5-Dichloropyridin-4-yl)amino]-N-(4-fluorophenyl)-7,7-dimethyl-7,8-dihydro-1H-furo[3,2-e]benzimidazole-5-carboxamide], the inhibition at 1 µM turned out to be 95.3%, the inhibition at 10 µM came to 95% and the IC50 is less than 50 nM.

For `CC(C)c1noc(-c2cc3nc(Nc4c(F)cccc4Cl)[nH]c3c3c2OC(C)(C)C3)n1` [Example-156, N-(2-Chloro-6-fluorophenyl)-5-(3-isopropyl-1,2,4-oxadiazol-5-yl)-7,7-dimethyl-7,8-dihydro-1H-benzofuro[4,5-d]imidazol-2-amine], the inhibition at 1 µM worked out at 33.1% and the inhibition at 10 µM amounted to 92.2%.

Regarding `Cn1c(Nc2c(F)cccc2Cl)nc2cc(C(=O)Nc3ccc(C(F)(F)F)c[n+]3[O-])c3c(c21)CC(C)(C)O3` [Example-155, 2-(2-((2-Chloro-6-fluorophenyl)amino)-1,7,7-trimethyl-7,8-dihydro-1H-benzofuro[4,5-d]imidazole-5-carboxamido)-5-(trifluoromethyl)pyridine 1-oxide], the inhibition at 1 µM stood at 87.9%, the inhibition at 10 µM turned out to be 99.8% and the IC50 is more than 100 nM.

Turning to `Cc1cc2c(o1)c(C(=O)Nc1ccc(Br)cc1)cc1nc(Nc3c(Cl)cccc3Cl)[nH]c12` [Example-66, N-(4-Bromophenyl)-2-[(2,6-dichlorophenyl)amino]-7-methyl-1H-furo[3,2-e]benzimidazole-5-carboxamide], the inhibition at 1 µM stood at 96.4%, the inhibition at 10 µM was 95.2% and the IC50 was less than 50 nM.

As usually defined, the inhibition is the change of the read-out against control, counted positive when it falls. A word on the IC50: it is the midpoint of a concentration-inhibition curve.
